Consider 64 sequences from PMC11714206, “Massively Parallel Screening of Toll/Interleukin‐1 Receptor (TIR)‐Derived Peptides Reveals Multiple Toll‐Like Receptors (TLRs)‐Targeting Immunomodulatory Peptides” (Advanced Science, 2024).

The assay concerns the target T1, MyD88^TIR (Homo sapiens, UniProt Q99836).
T1 construct: MyD88 (residues 148–296); 6xHis; made in house; host or cells: E. coli BL21 (DE3)
Description: T‐Surf phage library (P8 and P3) selection against MyD88^TIR, four rounds, NGS read counts. The class given is binding. Conditions: for P8_MyD88 Rank (after) / P8_MyD88 Rank (before): P8 library; for P3_MyD88 Rank (after) / P3_MyD88 Rank (before): P3 library; for Population: 4th round of selection against MyD88 TIR, share of NGS reads. The essentials:
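P8 and P3 T‐Surf libraries panned against plate-coated TIR domains (5 µg mL^−1), 1 h binding at RT, acid elution and TG1/helper-phage amplification per round. After four rounds, pools were PCR-barcoded and sequenced (NovaSeq, 100 bp paired-end, Phred ≥30); peptides ranked by read counts.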

Setting [1] is: selection against MyD88, rank after grouping.
Where [2] appears, read: selection against MyD88, rank before grouping.
[3] abbreviates: selection against MyD88, rank by count after grouping.
[4] abbreviates: selection against MyD88, rank by count before grouping.
The mark [5] stands for this setting: 4R selection against MyD88, rank after grouping.
Where [6] appears, read: 4R selection against MyD88, rank before grouping.
The mark [7] stands for this setting: P8_MyD88: rank by count after grouping.
[8] abbreviates: P8_MyD88: rank by count before grouping.
Setting [9] is: P8_MyD88 pool: P8 T-Surf phage library.
[10] abbreviates: P8_MyD88: rank by NGS read count after grouping.
The mark [11] stands for this setting: P8_MyD88: rank by NGS read count before grouping.
[12] abbreviates: P3_MyD88: rank by count after grouping.
Setting [13] is: P3_MyD88: rank by count before grouping.
The mark [14] stands for this setting: selection against MyD88 TIR, rank by count after grouping.
[15] abbreviates: selection against MyD88 TIR, rank by count before grouping.

T1 sequence (Q99836 148-296): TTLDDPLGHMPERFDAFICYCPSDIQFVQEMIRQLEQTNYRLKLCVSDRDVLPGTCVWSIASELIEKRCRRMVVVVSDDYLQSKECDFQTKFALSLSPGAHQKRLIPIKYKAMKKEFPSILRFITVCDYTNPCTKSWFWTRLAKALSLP

Turning to DQQDLDWFYERLVSVF, the “P8_MyD88 Rank (after)” value under setting [1] came out at 505. Further, the “P8_MyD88 Rank (before)” value under setting [2] turned out to be 3051. As for WALVELLHIRHARELF, the “P8_MyD88 Rank (after)” value under setting [3] was determined as 709. Also, the “P8_MyD88 Rank (before)” value under setting [4] was 1405. MFGGDTFMIFWILLA: the “P8_MyD88 Rank (after)” value under setting [5] came to 593. Under setting [6], the “P8_MyD88 Rank (before)” value stood at 3670. With YILYEDQTIKFVFRDFIQEL, under setting [7], the “Rank (after)” value came out at 385. Further, the “Rank (before)” value under setting [8] was 988. Regarding SRFREGLWRLLKLSKK, the “P3_MyD88 Rank (after)” value under setting [3] is 715. Moreover, the “P3_MyD88 Rank (before)” value under setting [4] is 3278. RISAFHQQLVIALEAQ: under setting [5], the “P3_MyD88 Rank (after)” value came out at 650. Moreover, under setting [6], the “P3_MyD88 Rank (before)” value is recorded as 2595. As to DSLFWDRLLYSLHVTD, the Population under setting [9] turned out to be 0.00732%. Take FLSYREGLWRLLELSKK: the “P3_MyD88 Rank (after)” value under setting [1] is 498. For the same sequence, the “P3_MyD88 Rank (before)” value under setting [2] worked out at 1376.

As to LGYHWKEWEHFVGIED, the “Rank (after)” value under setting [10] turned out to be 1028. For the same sequence, under setting [11], the “Rank (before)” value is listed as 3310.

For LVAHEITPSLFKAIKE, under setting [12], the “Rank (after)” value stood at 161. Also, the “Rank (before)” value under setting [13] was determined as 676. For DSLIWDRLLYSIKVTE, under setting [3], the “P8_MyD88 Rank (after)” value is listed as 737. The “P8_MyD88 Rank (before)” value under setting [4] is on record as 3124.

Turning to DPQDLDRSYERLVSLC, under setting [5], the “P8_MyD88 Rank (after)” value is 670. In addition, under setting [6], the “P8_MyD88 Rank (before)” value turned out to be 2842. With IDDDHLTYLVRLLLSLL, the “P8_MyD88 Rank (after)” value under setting [1] turned out to be 539. The “P8_MyD88 Rank (before)” value under setting [2] is 3634. As for KNLLNELVSKTIRTFM, the “Rank (after)” value under setting [12] is listed as 470. Also, the “Rank (before)” value under setting [13] amounted to 3790.

With DPQDLGWFYERLLSLF, under setting [7], the “Rank (after)” value was 441. Besides, under setting [8], the “Rank (before)” value is 2722. For WALNELLKILQAKIFL, the “Rank (after)” value under setting [10] is given as 905. Further, the “Rank (before)” value under setting [11] is listed as 1547. In the case of DPQGRDWFYERLVSLF, under setting [7], the “Rank (after)” value turned out to be 394. Also, the “Rank (before)” value under setting [8] came out at 2672. Regarding SRFREGLWPLLELSKK, under setting [12], the “Rank (after)” value is on record as 156. Further, the “Rank (before)” value under setting [13] stood at 3107. On to DPQDLAWFYASQSSQM, for which the “P8_MyD88 Rank (after)” value under setting [1] is on record as 500. In addition, the “P8_MyD88 Rank (before)” value under setting [2] amounted to 2997. For the sequence SMMPSSDFWKELALAL, the “P8_MyD88 Rank (after)” value under setting [14] came to 217. Moreover, under setting [15], the “P8_MyD88 Rank (before)” value was 369.

With NYAASEWALRELIQIM, the “P8_MyD88 Rank (after)” value under setting [1] is 528. For the same sequence, under setting [2], the “P8_MyD88 Rank (before)” value is given as 3837.

Consider FLSYRALEKRFGPLVQ, for which, under setting [1], the “P3_MyD88 Rank (after)” value is listed as 536. Further, the “P3_MyD88 Rank (before)” value under setting [2] was found to be 1378. Turning to WALDELLQILQARELS, under setting [3], the “P8_MyD88 Rank (after)” value is listed as 721. The “P8_MyD88 Rank (before)” value under setting [4] was 1462.

As for LVAQEISKIKTMLATT, the “P3_MyD88 Rank (after)” value under setting [1] worked out at 561. Besides, the “P3_MyD88 Rank (before)” value under setting [2] came to 2317. For the sequence KWLWEKRTCGHSRNTA, the “P3_MyD88 Rank (after)” value under setting [3] was 676. Moreover, the “P3_MyD88 Rank (before)” value under setting [4] is recorded as 3585. Take DPQDPDRNYERMVSRL: the “P8_MyD88 Rank (after)” value under setting [5] came out at 661. Moreover, the “P8_MyD88 Rank (before)” value under setting [6] stood at 2961. Regarding QYSDTLLEHTSKFPA, the “P3_MyD88 Rank (after)” value under setting [1] is 492. The “P3_MyD88 Rank (before)” value under setting [2] was 2837. For SSYRQGLWRLLELSKK, under setting [1], the “P3_MyD88 Rank (after)” value worked out at 485. Further, the “P3_MyD88 Rank (before)” value under setting [2] came to 3267.

Take LGYHGIDWVYFGGIED: under setting [1], the “P8_MyD88 Rank (after)” value came out at 565. The “P8_MyD88 Rank (before)” value under setting [2] stood at 3316. As for LGYHWIDWEYFV, under setting [9], the Population worked out at 0.0274%. As for SSLREGLWPLLELSKK, the “Rank (after)” value under setting [12] is listed as 94. Also, under setting [13], the “Rank (before)” value stood at 1214. ELDFSHFWLFDGHATGEA came in with a Population under setting [9] of 0.0177%.

Consider LGYHWIDWEYFEGIAD, for which the “Rank (after)” value under setting [10] was 928. Further, the “Rank (before)” value under setting [11] is given as 3268. Consider SSLREGLWRLQELSKK, for which the “Rank (after)” value under setting [12] was found to be 135. Further, the “Rank (before)” value under setting [13] is 3273. Regarding DPQEQVGICVRLMEAL, the “P8_MyD88 Rank (after)” value under setting [5] is given as 585. The “P8_MyD88 Rank (before)” value under setting [6] stood at 3020. WALDGLLKILHARELF: under setting [7], the “Rank (after)” value is recorded as 409. Also, the “Rank (before)” value under setting [8] was 1413.

As to YLKWGYPRFWDRLRFV, under setting [3], the “P3_MyD88 Rank (after)” value turned out to be 729. In addition, the “P3_MyD88 Rank (before)” value under setting [4] is recorded as 1603. Turning to NYASSSWALDELLRILY, the “Rank (after)” value under setting [7] stood at 155. In addition, the “Rank (before)” value under setting [8] is listed as 238. On to WRWMNCCRFCMRVNC, for which the “P8_MyD88 Rank (after)” value under setting [3] is listed as 729. Moreover, under setting [4], the “P8_MyD88 Rank (before)” value came to 1649. As for PKVGSWRQALEKAGKL, the “P3_MyD88 Rank (after)” value under setting [1] was 560. The “P3_MyD88 Rank (before)” value under setting [2] was found to be 2763.

RISAFHQQLLMALKTQ: under setting [3], the “P3_MyD88 Rank (after)” value was found to be 706. Under setting [4], the “P3_MyD88 Rank (before)” value amounted to 2609. As for NYASSSWALNELLEILK, under setting [1], the “P8_MyD88 Rank (after)” value was 506. Moreover, the “P8_MyD88 Rank (before)” value under setting [2] is given as 3849. Turning to KNLFNELVSKNIVPL, the “P3_MyD88 Rank (after)” value under setting [3] amounted to 686. The “P3_MyD88 Rank (before)” value under setting [4] was 3755. With SSFREDLCRLLALSNK, the “P3_MyD88 Rank (after)” value under setting [14] was determined as 286. In addition, the “P3_MyD88 Rank (before)” value under setting [15] came to 3226.

As to DSWTSAALYEALHALL, the “Rank (after)” value under setting [7] is 156. Besides, under setting [8], the “Rank (before)” value is given as 172. Under setting [9], this sequence had a Population of 0.00809%. KLDSAMIIKVQRWREA: the “P3_MyD88 Rank (after)” value under setting [5] amounted to 618. The “P3_MyD88 Rank (before)” value under setting [6] turned out to be 3698.

As for LGYQLIDWEYFVGIEN, the “Rank (after)” value under setting [10] was found to be 937. Further, under setting [11], the “Rank (before)” value is 3319. In the case of HQLSVDIQGYALKAGV, under setting [3], the “P3_MyD88 Rank (after)” value is given as 679. Besides, the “P3_MyD88 Rank (before)” value under setting [4] was determined as 2807. In the case of LGYYWNDWEYVVGIEE, under setting [10], the “Rank (after)” value is 884. For the same sequence, under setting [11], the “Rank (before)” value stood at 3218. As for HWIDWEYFVALKIIL, under setting [7], the “Rank (after)” value worked out at 427. The “Rank (before)” value under setting [8] is recorded as 1236. For the sequence SSFRERLWRPVALSKK, the “P3_MyD88 Rank (after)” value under setting [1] amounted to 493. Further, the “P3_MyD88 Rank (before)” value under setting [2] is recorded as 3227. Take LVSHEISKKVKIFATI: under setting [5], the “P3_MyD88 Rank (after)” value is listed as 638. In addition, the “P3_MyD88 Rank (before)” value under setting [6] is 2265. As to DPQDLDWFYECPVSMF, the “P8_MyD88 Rank (after)” value under setting [1] amounted to 535. In addition, the “P8_MyD88 Rank (before)” value under setting [2] stood at 2754. Take SSFREGLWSLLELSKN: the “Rank (after)” value under setting [12] came out at 183. In addition, the “Rank (before)” value under setting [13] is 3200.

As for WALDVLLQFLHARELF, the “P8_MyD88 Rank (after)” value under setting [3] is recorded as 723. Further, the “P8_MyD88 Rank (before)” value under setting [4] is 1412.

As for VQWDDPWFWDKLAY, under setting [5], the “P8_MyD88 Rank (after)” value was found to be 623. In addition, the “P8_MyD88 Rank (before)” value under setting [6] came out at 2231. SSFRERLWRLLELIKK: the “P3_MyD88 Rank (after)” value under setting [5] worked out at 644. Moreover, the “P3_MyD88 Rank (before)” value under setting [6] came to 3246. AVVRETQKIQPQRKNA: the “Rank (after)” value under setting [12] turned out to be 466. Under setting [13], the “Rank (before)” value turned out to be 1885.

With THSHNAVPAAANLSGW, the “Rank (after)” value under setting [12] amounted to 404. For the same sequence, the “Rank (before)” value under setting [13] is reported as 3289. Take GEDTRLPLPAICMRP: the “P3_MyD88 Rank (after)” value under setting [3] amounted to 740. In addition, the “P3_MyD88 Rank (before)” value under setting [4] turned out to be 1831.

SSFREGLWRLLELCKK showed a Population (P3_MyD88 pool: P3 T-Surf phage library) of 0.0032%. TSTWALDELWLILEQR: the Population under setting [9] is given as 0.0262%. LKVESWRQALEKAGN: the “Rank (after)” value under setting [12] came out at 126. Besides, the “Rank (before)” value under setting [13] came out at 1081. In the case of WALDELLQILHARELLQIA, the “P8_MyD88 Rank (after)” value under setting [5] stood at 632. Further, the “P8_MyD88 Rank (before)” value under setting [6] is 1453.
